Values quoted from earlier work in PMC9610285 (Pharmaceutics, 2022).

Conditions: cited from earlier work

C#CCN[C@@H]1CCc2ccccc21 [rasagiline, Rasagiline]
capacity to cross the blood-brain barrier: high capacity to cross the blood-brain barrier | elimination half-life (t1/2): 36 to 120 min | oral bioavailability: 36% | plasma protein binding: 60–70% | urine elimination: 62.6% | tmax (time to reach Cmax) (oral tablet): approximately 0.5 h
